# Where two headings read alike, the source gives them in different places.
# What was measured:
# Type in all cases: in vivo
# Ctenocephalides felis = test: 2% pressurized spray for control of fleas on dogs
# Method: An experiment was carried out on dogs obtained from a licensed laboratory animal dealer. These dogs were mixed breeds and of different size and sex. The dogs were individually housed in cages with absorbent paper placed under each in order to count dead fleas. A mixture containing 2% O,O,O',O'-tetramethyl O,O'-thiodi-p-phenylene phosphorothioate (active ingredient) and having the following formula was used as a pressurized spray: […]
# Two tests were carried out, one with 22 dogs and the other with 21 dogs, each test using 5 control dogs. Each dog was treated with approximately 60 mg./kg. of O,O,O',O'-tetramethyl O,O'-thiodi-p-phenylene phosphorothioate using the formulation described above. Each dog was infested with 100 1-day old adult C. felis 72 hours prior to spray treatment and reinfested on a weekly basis for 7 weeks, beginning 7 days after treatment. The five control dogs were treated with a blank spray containing everything except the active ingredient. After treatment or each reinfestation, daily examinations of each dog were made up to 7 days or until no live fleas could be found. Once a live flea was found, the dog was considered still infested even though the flea population may have been low. The number of dead fleas recovered from papers under the cages are expressed as average dead on treated/average dead on control are summarized in Table XVII.
# Amblyomma americanum = test: Control of adult ticks on rabbits, Table II; settings: for mortality at 0.05 % / mortality at 0.2 % / mortality at 0.4 %: Amblyomma americanum, topical, 96 h, 4 days after treatment
# Method: The midsection of each host rabbit is clipped, and a rubber capsule is cemented to the clipped portion of the skin. After a 24-hour drying period, the 10 ticks are placed in the capsule and allowed to attack the host for 72 hours. On the day of treatment, each capsule is sprayed with 2-3 cc. of the test compound, O,O,O',O'-tetramethyl O,O'-thiodi-p-phenylene phosphorothioate. Sufficient rabbits were used to test at concentrations of 0.05%, 0.20% and 0.40% (w/w), respectively.
# Mortality was noted 4 days after treatment. On those rabbits where female ticks survived, five untreated male ticks were introduced and the ticks allowed to mate. Fully engorged females were then removed from the capsule and placed in petri dishes for oviposition. Effect of fecundity is then determined by comparing the percent of eggs laid and the percent of eggs which hatch in the treated versus the controls.
# Dermacentor variabilis = test: Tick control on dogs fed medicated diet, Table V; settings: for % Control of Adult Engorged Female Ticks D.V.: dogs
# Method: (§1) Five groups of two mongrel dogs each were fed a daily dose of 0, 6.25, 25, 100 or 400 mg. O,O,O',O'-tetramethyl O,O'-thiodi-p-phenylene phosphorothioate/kg. body weight in Agway Big Red Dog Meal. Dogs eating less than 75% of the food were given a corrected dose by gelatin capsule to equal 100%. Medication began 1 day after infesting each dog with 100 adult Ctenocephalides felis and 2 days before infesting each dog with 10 Dermacentor variabiles and 10 Rhipicephalus sanguineus adults.
# Rhipicephalus sanguineus = test: Tick control on dogs fed medicated diet, Table V; settings: for % Control of Adult Engorged Female Ticks R.S.: dogs
# Method: as §1
# [1] = 400 mg/kg in feed, end of experiment (8 days)
compound,measurement,setting,value
"COP(=S)(OC)Oc1ccc(Sc2ccc(OP(=S)(OC)OC)cc2)cc1 [O,O,O',O'-tetramethyl O,O'-thiodi-p-phenylene phosphorothioate]",Percent of Dogs with Control,"Ctenocephalides felis; 60 mg/kg 2% pressurized spray, week 0",100%
same,Percent of Dogs with Control,"Ctenocephalides felis; 60 mg/kg 2% pressurized spray, week 1",100%
same,Percent of Dogs with Control,"Ctenocephalides felis; 60 mg/kg 2% pressurized spray, week 2",100%
same,Percent of Dogs with Control,"Ctenocephalides felis; 60 mg/kg 2% pressurized spray, week 3",100%
same,Percent of Dogs with Control,"Ctenocephalides felis; 60 mg/kg 2% pressurized spray, week 4",97.6%
same,Percent of Dogs with Control,"Ctenocephalides felis; 60 mg/kg 2% pressurized spray, week 5",95.2%
same,Percent of Dogs with Control,"Ctenocephalides felis; 60 mg/kg 2% pressurized spray, week 6",82.9%
same,Percent of Dogs with Control,"Ctenocephalides felis; 60 mg/kg 2% pressurized spray, week 7",58.5%
same,"Avg. Dead on Treated, Average on Two Tests","Ctenocephalides felis; 60 mg/kg, week 0, control 2.0",36.3
same,"Avg. Dead on Treated, Average on Two Tests","Ctenocephalides felis; 60 mg/kg, week 1, control 5.6",41.4
same,"Avg. Dead on Treated, Average on Two Tests","Ctenocephalides felis; 60 mg/kg, week 2, control 3.0",41.2
same,"Avg. Dead on Treated, Average on Two Tests","Ctenocephalides felis; 60 mg/kg, week 3, control 4.8",41.2
same,"Avg. Dead on Treated, Average on Two Tests","Ctenocephalides felis; 60 mg/kg, week 4, control 5.2",40.7
same,"Avg. Dead on Treated, Average on Two Tests","Ctenocephalides felis; 60 mg/kg, week 5, control 5.6",36.0
same,"Avg. Dead on Treated, Average on Two Tests","Ctenocephalides felis; 60 mg/kg, week 6, control 4.8",30.0
same,"Avg. Dead on Treated, Average on Two Tests","Ctenocephalides felis; 60 mg/kg, week 7, control 4.8",26.3
same,Number of Dogs on Which Fleas were Controlled,"Ctenocephalides felis; Combination of Test 1 & 2, 60 mg/kg, week 0, of 43",43 dogs
same,Number of Dogs on Which Fleas were Controlled,"Ctenocephalides felis; Combination of Test 1 & 2, 60 mg/kg, week 1, of 43",43 dogs
same,Number of Dogs on Which Fleas were Controlled,"Ctenocephalides felis; Combination of Test 1 & 2, 60 mg/kg, week 2, of 43",43 dogs
same,Number of Dogs on Which Fleas were Controlled,"Ctenocephalides felis; Combination of Test 1 & 2, 60 mg/kg, week 3, of 42",42 dogs
same,Number of Dogs on Which Fleas were Controlled,"Ctenocephalides felis; Combination of Test 1 & 2, 60 mg/kg, week 4, of 42",41 dogs
same,Number of Dogs on Which Fleas were Controlled,"Ctenocephalides felis; Combination of Test 1 & 2, 60 mg/kg, week 5, of 42",40 dogs
same,Number of Dogs on Which Fleas were Controlled,"Ctenocephalides felis; Combination of Test 1 & 2, 60 mg/kg, week 6, of 41",34 dogs
same,Number of Dogs on Which Fleas were Controlled,"Ctenocephalides felis; Combination of Test 1 & 2, 60 mg/kg, week 7, of 41",24 dogs
same,Number of Dogs on Which Fleas were Controlled,"Ctenocephalides felis; Experiment 1, 60 mg/kg 2% pressurized spray, week 0, of 22",22 dogs
same,Number of Dogs on Which Fleas were Controlled,"Ctenocephalides felis; Experiment 1, 60 mg/kg 2% pressurized spray, week 1, of 22",22 dogs
same,Number of Dogs on Which Fleas were Controlled,"Ctenocephalides felis; Experiment 1, 60 mg/kg 2% pressurized spray, week 2, of 22",22 dogs
same,Number of Dogs on Which Fleas were Controlled,"Ctenocephalides felis; Experiment 1, 60 mg/kg 2% pressurized spray, week 3, of 22",22 dogs
same,Number of Dogs on Which Fleas were Controlled,"Ctenocephalides felis; Experiment 1, 60 mg/kg 2% pressurized spray, week 4, of 22",22 dogs
same,Number of Dogs on Which Fleas were Controlled,"Ctenocephalides felis; Experiment 1, 60 mg/kg 2% pressurized spray, week 5, of 22",22 dogs
same,Number of Dogs on Which Fleas were Controlled,"Ctenocephalides felis; Experiment 1, 60 mg/kg 2% pressurized spray, week 6, of 22**",20 dogs
same,Number of Dogs on Which Fleas were Controlled,"Ctenocephalides felis; Experiment 1, 60 mg/kg 2% pressurized spray, week 7, of 21",12 dogs
same,Number of Dogs on Which Fleas were Controlled,"Ctenocephalides felis; Experiment 2, 60 mg/kg 2% pressurized spray, week 0, of 21",21 dogs
same,Number of Dogs on Which Fleas were Controlled,"Ctenocephalides felis; Experiment 2, 60 mg/kg 2% pressurized spray, week 1, of 21",21 dogs
same,Number of Dogs on Which Fleas were Controlled,"Ctenocephalides felis; Experiment 2, 60 mg/kg 2% pressurized spray, week 2, of 21",21 dogs
same,Number of Dogs on Which Fleas were Controlled,"Ctenocephalides felis; Experiment 2, 60 mg/kg 2% pressurized spray, week 3, of 20**",20 dogs
same,Number of Dogs on Which Fleas were Controlled,"Ctenocephalides felis; Experiment 2, 60 mg/kg 2% pressurized spray, week 4, of 20",19 dogs
same,Number of Dogs on Which Fleas were Controlled,"Ctenocephalides felis; Experiment 2, 60 mg/kg 2% pressurized spray, week 5, of 20",18 dogs
same,Number of Dogs on Which Fleas were Controlled,"Ctenocephalides felis; Experiment 2, 60 mg/kg 2% pressurized spray, week 6, of 20",14 dogs
same,Number of Dogs on Which Fleas were Controlled,"Ctenocephalides felis; Experiment 2, 60 mg/kg 2% pressurized spray, week 7, of 20",12 dogs
same,Avg. Dead on Treated,"Ctenocephalides felis; Test 1, 60 mg/kg, week 0, control 38",34.6
same,Avg. Dead on Treated,"Ctenocephalides felis; Test 1, 60 mg/kg, week 1, control 10.4",38.2
same,Avg. Dead on Treated,"Ctenocephalides felis; Test 1, 60 mg/kg, week 2, control 3.4",42.1
same,Avg. Dead on Treated,"Ctenocephalides felis; Test 1, 60 mg/kg, week 3, control 4.6",41.6
same,Avg. Dead on Treated,"Ctenocephalides felis; Test 1, 60 mg/kg, week 4, control 5.4",37.8
same,Avg. Dead on Treated,"Ctenocephalides felis; Test 1, 60 mg/kg, week 5, control 5.0",34.1
same,Avg. Dead on Treated,"Ctenocephalides felis; Test 1, 60 mg/kg, week 6, control 6.2",34.1
same,Avg. Dead on Treated,"Ctenocephalides felis; Test 1, 60 mg/kg, week 7, control 6.6",30.8
same,Avg. Dead on Treated,"Ctenocephalides felis; Test 2, 60 mg/kg, week 0, control .2",38.0
same,Avg. Dead on Treated,"Ctenocephalides felis; Test 2, 60 mg/kg, week 1, control .8",44.5
same,Avg. Dead on Treated,"Ctenocephalides felis; Test 2, 60 mg/kg, week 2, control 2.6",40.3
same,Avg. Dead on Treated,"Ctenocephalides felis; Test 2, 60 mg/kg, week 3, control 5.0",40.7
same,Avg. Dead on Treated,"Ctenocephalides felis; Test 2, 60 mg/kg, week 4, control 5.0",43.6
same,Avg. Dead on Treated,"Ctenocephalides felis; Test 2, 60 mg/kg, week 5, control 6.2",37.9
same,Avg. Dead on Treated,"Ctenocephalides felis; Test 2, 60 mg/kg, week 6, control 3.5",26.0
same,Avg. Dead on Treated,"Ctenocephalides felis; Test 2, 60 mg/kg, week 7, control 3.0",21.8
same,Eggs Hatched (%),Amblyomma americanum; 0.05% (w/w),90%
same,Eggs Hatched (%),Amblyomma americanum; 0.20% (w/w),50%
same,Control of ticks,Amblyomma americanum; 0.20% and 0.40% (w/w),effectively controls amblyomma ticks by killing the adult males and some females and rendering the female ova non-viable
same,Eggs Hatched (%),Amblyomma americanum; 0.40% (w/w),1%
same,mortality at 0.05 %,"Amblyomma americanum; 0.05% (w/w), read-out: Deaths (%) Females",10%
same,mortality at 0.05 %,"Amblyomma americanum; 0.05% (w/w), read-out: Deaths (%) Males",70%
same,mortality at 0.2 %,"Amblyomma americanum; 0.20% (w/w), read-out: Deaths (%) Females",40%
same,mortality at 0.2 %,"Amblyomma americanum; 0.20% (w/w), read-out: Deaths (%) Males",100%
same,mortality at 0.4 %,"Amblyomma americanum; 0.40% (w/w), read-out: Deaths (%) Females",50%
same,mortality at 0.4 %,"Amblyomma americanum; 0.40% (w/w), read-out: Deaths (%) Males",100%
same,effect against adult ticks,Dermacentor variabilis; 6.25 mg/kg in feed,ineffective
same,effect against adult ticks,Dermacentor variabilis; 25 mg/kg in feed,ineffective
same,condition of ticks,"Dermacentor variabilis; 100 mg/kg in feed, some ticks on one dog",discolored and stunted
same,condition of adult ticks in capsules,Dermacentor variabilis; [1],either dead or moribund
same,% Control of Adult Engorged Female Ticks D.V.,Dermacentor variabilis; 6.25 mg/kg in feed,0%
same,% Control of Adult Engorged Female Ticks D.V.,Dermacentor variabilis; 25 mg/kg in feed,10%
same,% Control of Adult Engorged Female Ticks D.V.,Dermacentor variabilis; 100 mg/kg in feed,30%
same,% Control of Adult Engorged Female Ticks D.V.,Dermacentor variabilis; 400 mg/kg in feed,100%
same,effect against adult ticks,Rhipicephalus sanguineus; 6.25 mg/kg in feed,ineffective
same,effect against adult ticks,Rhipicephalus sanguineus; 25 mg/kg in feed,ineffective
same,condition of ticks,Rhipicephalus sanguineus; 100 mg/kg in feed,engorged and detached normally
same,condition of two female ticks on the ear of one dog,"Rhipicephalus sanguineus; 400 mg/kg in feed, end of experiment","appeared normal, though not completely engorged"
same,condition of adult ticks in capsules,Rhipicephalus sanguineus; [1],either dead or moribund
same,% Control of Adult Engorged Female Ticks R.S.,Rhipicephalus sanguineus; 6.25 mg/kg in feed,20%
same,% Control of Adult Engorged Female Ticks R.S.,Rhipicephalus sanguineus; 25 mg/kg in feed,0%
same,% Control of Adult Engorged Female Ticks R.S.,Rhipicephalus sanguineus; 100 mg/kg in feed,50%
same,% Control of Adult Engorged Female Ticks R.S.,Rhipicephalus sanguineus; 400 mg/kg in feed,100%

# Reference: patent US3968207A, “Method of controlling fleas and ticks on cats and dogs” (priority 1975, dated 1976)
